Measured values as given in patent publication US12036241B2, “Compositions and methods for immune cell modulation in adoptive immunotherapies” (Fate Therapeutics, Inc., priority 2017, dated 2024).
“Also recorded” adds a separate entry of the source. Where two headings read alike, the source gives them in different places.

How the values were obtained:
CD8+ T cells = assay: Cytokine production (IFNγ, IL-2, TNFα) after PMA/ionomycin, intracellular staining; type: cell-based, human; details: PMA/ionomycin 4 h; FIG. 3D
Protocol: The ability of T cells to respond to a variety of stimuli can be important to their function. The capacity of T cells to produce multiple cytokines in response to non-specific stimulation is a measure of their ‘multifunctionality’. To assess whether compounds affect this ‘multifunctional’ response, the ability of modulated T cells to produce interferon-γ (IFNγ), IL-2 and/or TNFα post-stimulation was determined. After CD8^+ T cell treatment with each of the selected compounds, cells were stimulated with a mixture of PMA/ionomycin for four hours. Following stimulation, cytokine production was measured using intracellular cytokine staining with antibodies recognizing these cytokines conjugated to different fluorophores. Fluorescence was measured using flow cytometry. Cell were defined as multifunctional if they produced two or more cytokines. The proportion of T cell subsets that produce specific single, double or triple cytokines was examined and compared to cells without modulation using a selected compound.
The ability of T cells to respond to a variety of stimuli is important for their function. The capacity of T cells to produce multiple cytokines in response to non-specific stimulation is a measure of their “multifunctionality”. To assess whether selected compounds affect this “multifunctional” response in view of their phenotype skewing effect on the treated cells, the ability of treated cells to produce interferon-γ (IFNγ), IL-2 and TNFα post-stimulation was determined. After treatment of CD8+ T cells with a compound from Table 1, cells were stimulated with a mixture of PMA/ionomycin for four hours. Following stimulation, cytokine production was measured by intracellular cytokine staining with fluorescence-emitting antibodies recognizing these cytokines conjugated to different fluorophores. Fluorescence was measured using flow cytometry. Cells were defined as multifunctional if they produced at least two of the three cytokines.

[1] = test system: irradiated K562 cells expressing CD19 and mKate2; assay: Target cell killing by compound-treated CAR-T cells (IncuCyte); type: cell-based, human; details: earlier time points, 24 to 65 hours; FIG. 4A
[2] = test system: CAR-T cells in spleen and bone marrow; assay: In vivo persistence of CAR-T cells during and after tumor clearance; set-up: species or system mice; details: FIG. 9 legend
From the text: Further, in vivo persistence of compound-treated CAR-T cells during and after tumor clearance was also investigated. One of the main correlates of successful CAR-T cell therapy in patients is the persistence of CAR-T cells (i.e., through cell survival and/or cell expansion in vivo). To model CAR-T cell persistence in vivo, CD4+ and CD8+ T cells were separately expanded and transduced with a lentivirus encoding CAR-T2A-Thy1 and cultured in the presence of DMSO or a lentivirus encoding CAR-T2A-GFP and cultured in the presence of a testing compound (Table 3). Then a cohort of mice were injected with a curative dose (2×10^6) of CAR-T cells that was composed of CAR-T cell subsets from two different expansion protocols and mixed at approximately a 1:1:1:1 ratio, and the initial ratio of the CAR-T cells subsets in the injection mix was further determined prior to injection. All mice in the cohort had received Nalm-6-luc cells 4 days earlier and were able to clear the tumor by the injected CAR-T cells.
At day 7, 15, 21, and 32 post CAR-T cell injection (day 0: tumor engraftment, day 4: CAR-T cell injection) mice were sacrificed and the relative proportions of the CAR-T cells expanded in DMSO or the testing compound in both spleen and bone marrow were determined. FIG. 9 exemplifies the effect of a PDK1 inhibitor treatment on CAR-T cell in vivo persistence. […]

CAR-T cells = assay: Serial restimulation of CAR-T cells produced with vehicle, PI3K inhibitor or PDK1 inhibitor; type: cell-based, human; details: after antigen stimulation and withdrawal, and with coated beads; FIG. 10 legend
Protocol: At the end of the manufacturing process, the cells were frozen prior to subsequent functional analysis.
The ability of CAR-T cells produced in the presence of vehicle, PI3K inhibitor, or PDK1 inhibitor to expand through multiple rounds of antigen stimulation was measured in a serial restimulation assay, wherein cryopreserved CAR-T cells were thawed and co-cultured in the presence of antigen-bearing, irradiated target cells. Every 3 to 4 days the CAR-T and target cell ratios were readjusted to approximately 1:1. […] As an alternative to using antigen-bearing, irradiated target cells for CAR-T cell stimulation, cryopreserved CAR-T cells from three independent donors produced in the presence of vehicle, PI3Ki or PDKli were thawed in T cell growth media and subsequently assessed for expansion and survival, as measured by AUC (area under the curve) of the expansion over 14 days of stimulation with anti-CAR antibodies conjugated to beads.

[3] = test system: CD19 and BCMA CAR-T cells; assay: Cytokine production on stimulation with antigen-bearing cells, MSD analysis; type: cell-based, human
Nalm-6 = assay: Survival in Nalm6/NSG tumor model, suboptimal CAR-T dose; type: in vivo, NSG mice; details: 3×10^5 CD19 CAR-T cells; FIG. 12A; listed as PDK1 inhibitor
Protocol: (§1) Next, an in vivo assay was conducted to further characterize CAR-T cells produced in the presence of a PI3K inhibitor or a PDK1 inhibitor for tumor clearance. NSG mice were injected with a human leukemia line, Nalm-6. Four days later, mice were treated with a suboptimal dose (3×10^5) of freshly thawed CD19 CAR-T cells generated in the presence of vehicle (“DMSO” n=8), PI3K inhibitor (n=8), or PDK1 inhibitor (n=8). Some tumor bearing mice (n=2) also received expanded T cells that were not transduced with CAR (untransduced or “UNTD”). Negative control mice (n=2, “Unmanip”) received neither tumor nor CAR T cells. […] Seven days later, a suboptimal dose (2.5×10^5) of CD19 CAR-T cells produced in the presence of DMSO, PDK1 inhibitor, or PI3K inhibitor were transferred and the survival of the tumor bearing mice was monitored.

Raji = assay: Survival in Raji/NSG tumor model, suboptimal CAR-T dose; type: in vivo, NSG mice; details: 2.5×10^5 CD19 CAR-T cells; FIG. 12B; listed as PDK1 inhibitor
Protocol: as §1

[4] = test system: luciferase expressing Nalm6 tumor cells; assay: Two-stage tumor clearance model, primary tumor; type: in vivo, NSG mice; details: compared to DMSO treated CAR-T; FIG. 13C
Protocol: (§2) To further assess tumor clearance and control by CAR-T cells modulated with a selected compound, a two-stage tumor clearance model was established. […] Secondary tumor burden was measured via bi-weekly caliper measurements and IVIS imaging. IVIS control mice received neither tumor nor CAR-T cells and served as the background luminescence for the IVIS imager.

[5] = test system: K562 tumor cells engineered to express CD19 and luciferase; assay: Two-stage tumor clearance model, secondary tumor re-challenge; type: in vivo, NSG mice; details: re-challenge 47 days post primary tumor, FIG. 13D
Protocol: as §2

CD8+ CAR-T cells = details: FIG. 2C

SMILES: CNc1nc(-c2ccc3c(N)n[nH]c3c2)cc(N2C[C@@H](C(=O)NC3CCCCC3)CC[C@H]2C)n1 [Compound 21, GSK2334470]
- increase of IFNγ+ only subpopulation (CD8+ T cells): ~10 fold
- increase of IL-2 only subpopulation (CD8+ T cells): ~19 fold
- kinetics of target cell killing compared to vehicle [1]: slower than for vehicle
- persistence of CAR-T cells during and after tumor clearance in vivo [2]: increased persistence
- CAR-T cell expansion (CAR-T cells): improves CAR-T cell expansion
- IL-2 production compared to DMSO ([3]; after 14 days of CAR activation): overall greater amounts of IL-2
- IL-2 production compared to DMSO ([3]; immediately following thaw (day 0)): greater amounts of IL-2
- IFNγ and TNF production compared to DMSO ([3]; post thaw): comparable
- survival of tumor bearing mice compared to DMSO generated CAR-T cells (Nalm-6): prolonged survival; also recorded: improves survival
- survival of tumor bearing mice compared to DMSO treated CAR-T cells (Raji): substantially improved; also recorded: improves survival
- in vivo efficacy at day 11 post primary tumor injection [4]: greater in vivo efficacy
- control of secondary tumor ([5]; listed as PDK1): superior and rapid control of secondary tumor
- control of secondary tumor ([5]; listed as PDK1 inhibitor): rapid control of secondary tumor
- donors in which treatment significantly improved expansion of CD8+ CAR-T cells vs vehicle (CD8+ CAR-T cells; 5 healthy donors): 4 out of 5
- expansion of CD8+ CAR-T cells in comparison to vehicle treatment (CD8+ CAR-T cells; listed as PDK1i): significantly improved
- expansion of CD8+ CAR-T cells in comparison to vehicle treatment (CD8+ CAR-T cells; listed as PDK1 inhibitor): improves expansion
